Key:
[1] = target: human recombinant μ-opioid receptor (Homo sapiens, UniProt P35372); assay: μ-opioid receptor radioligand displacement ([3H]DAMGO); type: binding
TRPV1 ion channel = target: T1, TRPV1 ion channel (Homo sapiens, UniProt Q8NER1); assay: Effect on activity of TRPV1 ion channel (Fluo-4 AM calcium); type: cell-based; details: TRPV1 expressing CHO cells; Capsaicin 30 nM; intracellular calcium; read-out: IC50, blocker of TRPV1 ion channel
T1 construct: expressed in transfected cells; host or cells: CHO cells
Protocol: Compound I was dissolved in DMSO to a concentration of 100 mM; then the stock solution was serially diluted with DMSO to prepare a test solution with the concentration of substance equal to 50 μM. TRPV1 expressing CHO cells were used in the experiment. At the day of the experiment, the cells were incubated with a 4 μM of a solution of fluorescent indicator Fluo-4 AM. The cells after the preincubation with Capsaicin (30 nM), the known agonist of […] ion channel, were incubated with the test compound. The activity of receptors was determined by the intracellular calcium concentration using fluorescence spectroscopy (Behrendt, H. J. et al. (2004), Br. J. Pharmacol., 141: 737-745. FINAL).

male balb/c mice = assay: Motility of the gastrointestinal tract in vivo (activated carbon transit); details: for The time of ejection of activated carbon: intact 73.8 ± 3.7
Protocol: The effect of Compound I on the motility of the GIT was studied by a standard procedure (Li Y. Y., Li Y. N., Ni J. B., Chen C. J., Lv S., Chai S. Y., Wu R. H., Yüce B., Storr M. Involvement of cannabinoid-1 and cannabinoid-2 receptors in septic ileus//Neurogastroenterol Motil. 2010. V. 22. P. 350-388). The study was carried out on male balb/c mice, the individual weight of which deviates from the mean value within the sex of no more than ±20%. The animals were given the intragastric administration of a solution of activated carbon (50 mg/ml, in 10 ml/kg) and the rate (in minutes) of the movement of the activated carbon on the intestine of animals was evaluated. Compounds I was administered once intragastrically 1 hour prior to administration of activated carbon. As the comparative preparations, hyoscin butyl bromide (Buscopan) at a dose of 3 mg/kg, trimebutine (Trimedat) at a dose of 33 mg/kg, mebeverine (Duspatalin) at a dose of 30 mg/kg were used. The obtained data were checked using the Grubb's test for the presence of the largest or smallest abnormal observation (ejection) in the sample. Values determined “to be eliminated” in this test were not used for further assay. For all data, descriptive statistics was used: a mean value (M) and standard error of the mean value (m) were counted up. The normality of distribution of the values obtained in the course of the experiment was checked with the aid of the Kolmogorov-Smirnov test. In the case of normal distribution, Student's t-test (t-test) was used to evaluate the inter-group distinctions. In the case of the distribution that is other than the normal one for the comparison of several groups, the Kruskall-Wallis test (with Dann's post hoc test) was used. Distinctions were determined at 5% at a level of confidence.

rats = assay: Stress-induced defecation model in rats; type: in vivo; details: 40 minutes restraint, control 2.65 ± 0.35, intact 0.24 ± 0.05
Protocol: The study of the activity of Compound I in the stress-induced defecation model was carried out by a standard procedure (Taguchi R., Shikata K., Furuya Y, Hirakawa T., Ino M., Shin K., Shibata H. Selective corticotropin-releasing factor 1 receptor antagonist E2508 reduces restraint stress-induced defecation and visceral pain in rat models//Psychoneuroendocrinology. 2017. P. 110-115).
Rats were adapted to a room in which the experiment was conducted for 24 hours. The study was carried out on satisfied rats. Compound I was administered once, intragastrically. After 1 hour, the rat was placed in the cloth so that the front paws were pressed to the body. In such a form, the rat was placed into the individual cage on the gating and was left for 40 minutes. Summarily the whole of excrement released during the observation period of 40 minutes then was weighed.
For all data, descriptive statistics is applied: the arithmetic mean (M) and the standard error of the mean (m) are counted up. The normality of distribution of the values obtained in the course of the experiment was checked with the aid of the Shapiro-Wilk test. In the case of normal distribution, 1-way ANOVA (with […] post hoc test) was used to evaluate the inter-group distinctions. In the case of the distribution that is other than normal one, the […] was used for the comparison of several groups.

balb/c male mice = assay: Acute pain response model, administration of mustard oil in mice; type: in vivo
Protocol: The study of the activity of the compound on the acute pain response model was conducted using a standard procedure (Laird M. A., Martinez-Caro L., Garcia-Nicas E., Cervero F. A new model of visceral pain and referred hyperalgesia in the mouse//J. Pain 92 (2001). P. 335-342).
The study was carried out on balb/c male mice, the individual weight of which deviates from the mean value within the sex of no more than ±10%. First, the mice were lightly anesthetized (after 24 hours of fasting). Then 1% solution of mustard oil in physiological solution was introduced to the animals at 4 cm in depth with the help of catheter 3.5 F. The solvent was introduced to the healthy control. 5 minutes after the introduction of the mustard oil, the presence of pain in the animal (a number of abdominal lickings, abdominal wall abductions, lower abdominal deformity to the floor, abdominal distension) was evaluated during the first 20 minutes. Compound I was administered once intragastrically 1 hour before the administration of mustard oil. The obtained data were checked using the Grubb's test for the presence of the largest or smallest abnormal observation (ejection) in the sample. Values determined “to be eliminated” in this test were not used for further assay. For all data, descriptive statistics was used: a mean value (M) and standard error of the mean value (m) were counted up. The normality of distribution of the values obtained in the course of the experiment was checked with the aid of the Kolmogorov-Smirnov test. In the case of normal distribution, Student's t-test (t-test) was used to evaluate the inter-group distinctions. In the case of the distribution that is other than the normal one the Kruskall-Wallis test (with Dann's post hoc test) was used for the comparison of several groups. Distinctions were determined at 5% at a level of confidence.

[2] = system: guinea pigs of Agouti line; assay: Capsaicin cough model in guinea pigs, inhalation administration; type: in vivo
[3] = system: guinea pigs of Agouti line; assay: Citrate cough model in guinea pigs, inhalation administration; type: in vivo; details: 0.25 mg/kg by inhalation 15 minutes prior to citric acid

Sequence of human recombinant μ-opioid receptor (P35372 whole entry): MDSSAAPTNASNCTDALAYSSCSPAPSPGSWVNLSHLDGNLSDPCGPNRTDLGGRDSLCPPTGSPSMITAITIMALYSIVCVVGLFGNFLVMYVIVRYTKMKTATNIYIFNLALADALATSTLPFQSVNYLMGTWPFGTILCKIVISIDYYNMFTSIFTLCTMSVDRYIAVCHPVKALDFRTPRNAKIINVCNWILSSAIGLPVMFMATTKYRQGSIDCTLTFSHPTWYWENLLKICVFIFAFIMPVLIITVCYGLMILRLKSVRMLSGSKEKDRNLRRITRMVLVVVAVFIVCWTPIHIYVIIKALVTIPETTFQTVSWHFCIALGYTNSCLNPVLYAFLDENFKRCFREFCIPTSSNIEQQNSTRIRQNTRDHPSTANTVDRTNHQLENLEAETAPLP
T1 sequence (Q8NER1 whole entry): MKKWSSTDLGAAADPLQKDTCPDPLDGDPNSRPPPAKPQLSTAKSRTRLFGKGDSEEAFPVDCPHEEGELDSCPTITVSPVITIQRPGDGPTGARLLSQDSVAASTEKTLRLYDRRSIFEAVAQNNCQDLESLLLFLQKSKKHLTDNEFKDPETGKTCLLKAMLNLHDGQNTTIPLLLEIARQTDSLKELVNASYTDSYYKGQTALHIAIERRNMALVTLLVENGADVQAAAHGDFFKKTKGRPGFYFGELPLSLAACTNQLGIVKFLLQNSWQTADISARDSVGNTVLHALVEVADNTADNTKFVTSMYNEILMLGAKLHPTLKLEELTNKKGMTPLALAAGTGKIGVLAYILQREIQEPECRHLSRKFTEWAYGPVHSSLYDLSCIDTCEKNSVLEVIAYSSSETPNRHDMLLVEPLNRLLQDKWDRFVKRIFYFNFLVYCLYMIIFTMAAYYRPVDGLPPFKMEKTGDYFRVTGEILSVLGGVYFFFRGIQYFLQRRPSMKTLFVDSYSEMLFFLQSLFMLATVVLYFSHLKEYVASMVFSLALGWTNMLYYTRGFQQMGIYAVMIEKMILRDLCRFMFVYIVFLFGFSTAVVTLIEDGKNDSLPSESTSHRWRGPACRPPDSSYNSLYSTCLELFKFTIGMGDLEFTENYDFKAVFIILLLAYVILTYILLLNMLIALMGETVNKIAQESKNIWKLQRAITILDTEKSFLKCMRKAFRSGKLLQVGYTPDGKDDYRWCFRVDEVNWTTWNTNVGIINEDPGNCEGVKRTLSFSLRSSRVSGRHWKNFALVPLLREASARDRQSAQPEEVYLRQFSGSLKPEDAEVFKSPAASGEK

## O=C(Cc1ccc(O)cc1)N[C@@H](Cc1ccccc1)C(=O)NCCc1ccccc1 [Compound I, 2-phenylethylamide N-(p-hydroxyphenylacetyl)phenylalanine]
[1]
  IC50: 4.1 µM
TRPV1 ion channel
  IC50: 51 µM
Male balb/c mice; 1.5 mg/kg once intragastrically 1 hour prior to activated carbon
  The time of ejection of activated carbon: 108.7 ± 9.28 min
Male balb/c mice; 3 mg/kg once intragastrically 1 hour prior to activated carbon
  The time of ejection of activated carbon: 130.4 ± 11.42 min
Male balb/c mice; 7.5 mg/kg once intragastrically 1 hour prior to activated carbon
  The time of ejection of activated carbon: 123.4 ± 11.43 min
Male balb/c mice; 15 mg/kg once intragastrically 1 hour prior to activated carbon
  The time of ejection of activated carbon: 147.6 ± 8.94 min
Male balb/c mice; 1.5-15 mg/kg intragastrically, versus intact
  Increase of the time of activated carbon evacuation: 1.5-2 times
rats; 0.3 mg/kg once intragastrically
  Weight of excrement: 2.35 ± 0.35 g
rats; 1 mg/kg once intragastrically
  Weight of excrement: 1.43 ± 0.12 g
rats; 3 mg/kg once intragastrically
  Weight of excrement: 1.00 ± 0.06& g
balb/c male mice; 15 mg/kg once intragastrically 1 hour prior to mustard oil, control 10.4 ± 1.59, intact 2.2 ± 0.33
  Number of pain sensations, 0-20 min: 2.56 ± 0.78 &
balb/c male mice; 1.5 once intragastrically 1 hour prior to mustard oil, control 10.4 ± 1.59
  Number of pain sensations, 0-20 min: 14.8 ± 3.01
balb/c male mice; 3 once intragastrically 1 hour prior to mustard oil, control 10.4 ± 1.59
  Number of pain sensations, 0-20 min: 8.56 ± 0.94
balb/c male mice; 7.5 once intragastrically 1 hour prior to mustard oil, control 10.4 ± 1.59
  Number of pain sensations, 0-20 min: 15.1 ± 1.7
[2]; 0.25 mg/kg by inhalation 15 minutes before capsaicin
  Suppression of cough (% from the control): 46.7%
[2]; 0.25 mg/kg by inhalation 15 minutes before capsaicin 30 μM, control 15.2 ± 0.8
  A number of cough attacks for 15 minutes from the start of inhalation (test): 8.1 ± 0.2*&
[3]
  Suppression of cough (% from the control of pathology) in the chamber: 39.1%
[3]; control 48.8 ± 4
  A number of cough attacks during the inhalation for 10 minutes: 29.7 ± 2.7*&
